According to paper PMC7901646, “Pyrrolo[2′,3′:3,4]cyclohepta[1,2-d][1,2]oxazoles, a New Class of Antimitotic Agents Active against Multiple Malignant Cell Types” (Journal of Medicinal Chemistry, 2020):
Read-outs that look alike come from different tables or passages of the source.

Assays:
Type in all cases: cell-based
OVCAR-3 = experiment: NCI-60 screen; conditions: Homo sapiens, Ovarian Cancer
Excerpt: (§1) on the full NCI-60 panel comprising cancer cell lines derived from nine human cancer cell types (leukemia, non-small-cell lung, colon, central nervous system, melanoma, ovarian, renal, prostate, and breast).[50]

KM12 = experiment: NCI-60 screen; conditions: Homo sapiens, Colon Cancer
Excerpt: as §1

NCI-H522 = experiment: NCI-60 screen; conditions: Homo sapiens, Non-Small-Cell Lung Cancer
Excerpt: as §1

LOX IMVI = experiment: NCI-60 screen; conditions: Homo sapiens, Melanoma
Excerpt: as §1

SW-620 = experiment: NCI-60 screen; conditions: Homo sapiens, Colon Cancer
Procedure: (§2) All the synthesized compounds 51–76 were tested at a 10^–5 M concentration for their antitumor activity on the full NCI-60 panel comprising cancer cell lines derived from nine human cancer cell types (leukemia, non-small-cell lung, colon, central nervous system, melanoma, ovarian, renal, prostate, and breast).[50]

SK-MEL-5 = experiment: NCI-60 screen; conditions: Homo sapiens, Melanoma
Procedure: as §2

HCT-15 = experiment: NCI-60 screen; conditions: Homo sapiens, Colon Cancer
Procedure: as §2

MDA-MB-231/ATCC = experiment: NCI-60 screen; conditions: Homo sapiens, Breast Cancer
Procedure: as §2

SF-295 = experiment: NCI-60 screen; conditions: Homo sapiens, CNS Cancer
Procedure: as §2

CAKI-1 = experiment: NCI-60 screen; conditions: Homo sapiens, Renal Cancer
Procedure: as §2

HT29 = experiment: NCI-60 screen; conditions: Homo sapiens, HT-29; Colon Cancer
Procedure: as §2

COLO 205 = experiment: NCI-60 screen; conditions: Homo sapiens, Colon Cancer
Procedure: as §2

M14 = experiment: NCI-60 screen; conditions: Homo sapiens, Melanoma
Procedure: as §2

SR = experiment: NCI-60 screen; conditions: Homo sapiens, Leukemia
Procedure: as §2

UACC-62 = experiment: NCI-60 screen; conditions: Homo sapiens, Melanoma
Procedure: as §2

HL-60(TB) = experiment: NCI-60 screen; conditions: Homo sapiens, Leukemia
Procedure: as §2

HCT-116 = experiment: NCI-60 screen; conditions: Homo sapiens, Colon Cancer
Procedure: as §2

MCF7 = experiment: NCI-60 screen; conditions: Homo sapiens, Breast Cancer
Procedure: as §2

DU-145 = experiment: NCI-60 screen; conditions: Homo sapiens, Prostate Cancer
Procedure: as §2

IGROV1 = experiment: NCI-60 screen; conditions: Homo sapiens, IGROV-1; Ovarian Cancer
Procedure: as §2

MOLT-4 = experiment: NCI-60 screen; conditions: Homo sapiens, Leukemia
Procedure: as §2

RPMI-8226 = experiment: NCI-60 screen; conditions: Homo sapiens, Leukemia
Procedure: as §2

NCI/ADR-RES = experiment: NCI-60 screen; conditions: Homo sapiens, Ovarian Cancer
Procedure: as §2

SK-OV-3 = experiment: NCI-60 screen; conditions: Homo sapiens, Ovarian Cancer
Procedure: as §2

K-562 = experiment: NCI-60 screen; conditions: Homo sapiens, K562; Leukemia
Procedure: as §2

TK-10 = experiment: NCI-60 screen; conditions: Homo sapiens, Renal Cancer
Procedure: as §2

NCI-H460 = experiment: NCI-60 screen; conditions: Homo sapiens, Non-Small-Cell Lung Cancer
Procedure: as §2

ACHN = experiment: NCI-60 screen; conditions: Homo sapiens, Renal Cancer
Procedure: as §2

CCRF-CEM = experiment: NCI-60 screen; conditions: Homo sapiens, Leukemia
Procedure: as §2

MDA-MB-435 = experiment: NCI-60 screen; conditions: Homo sapiens, Melanoma
Procedure: as §2

SNB-19 = experiment: NCI-60 screen; conditions: Homo sapiens, CNS Cancer
Procedure: as §2

PC-3 = experiment: NCI-60 screen; conditions: Homo sapiens, Prostate Cancer
Procedure: as §2

SF-268 = experiment: NCI-60 screen; conditions: Homo sapiens, CNS Cancer
Procedure: as §2

NCI-H226 = experiment: NCI-60 screen; conditions: Homo sapiens, Non-Small-Cell Lung Cancer
Procedure: as §2

A498 = experiment: NCI-60 screen; conditions: Homo sapiens, Renal Cancer
Procedure: as §2

[1] = test system: NCI-60 panel of human cancer cell lines; experiment: NCI in vitro human tumor cell line screening, full panel; conditions: full NCI panel; for MG_MID (mean graph midpoint): arithmetic mean for all tested cancer cell lines; for GI50: five concentrations 10^–4–10^–8 M, read-out: GI50 (concentration that inhibits 50% net cell growth), range over panel
Excerpt: as §1

Structure (SMILES) | GI50 (OVCAR-3) | GI50 (KM12) | GI50 (NCI-H522) | GI50 (LOX IMVI) | GI50 (SW-620) | GI50 (SK-MEL-5) | GI50 (HCT-15) | GI50 (MDA-MB-231/ATCC) | GI50 (SF-295) | GI50 (CAKI-1) | GI50 (HT29) | GI50 (COLO 205) | GI50 (M14) | GI50 (SR) | GI50 (UACC-62) | GI50 (HL-60(TB)) | GI50 (HCT-116) | GI50 (MCF7) | GI50 (DU-145) | GI50 (IGROV1) | also measured
CCOC(=O)c1cc2c(n1Cc1cc(OC)c(OC)c(OC)c1)-c1oncc1CCC2 [Compound 67, Ethyl 9-(3,4,5-Trimethoxybenzyl)-4,5,6,9-tetrahydropyrrolo[2′,3′:3,4]cyclohepta[1,2-d][1,2]oxazole-8-carboxylate] | 30 nM | 50 nM | 10 nM | 410 nM | 140 nM | 170 nM | 160 nM | 480 nM | 440 nM | 70 nM | 70 nM | 40 nM | 150 nM | 40 nM | 50 nM | 190 nM | 190 nM | 40 nM | 280 nM | 60 nM | GI50 (MOLT-4): 390 nM; GI50 (RPMI-8226): 380 nM; GI50 (NCI/ADR-RES): 60 nM; GI50 (SK-OV-3): 130 nM; GI50 (K-562): 130 nM; GI50 (TK-10): 64.9 µM; GI50 (NCI-H460): 230 nM; GI50 (ACHN): 0.29 µM; GI50 (CCRF-CEM): 300 nM; GI50 (MDA-MB-435): 20 nM; GI50 (SNB-19): 560 nM; GI50 (PC-3): 170 nM; GI50 (SF-268): 520 nM; GI50 (NCI-H226): 1210 nM; GI50 (A498): 110 nM; MG_MID (mean graph midpoint) [1]: 0.20 µM; GI50 [1]: 0.01 to 64.9 µM
CCOC(=O)c1c(Cl)c2c(n1Cc1ccccc1)-c1oncc1CCC2 [Compound 70, Ethyl 7-Chloro-9-benzyl-4,5,6,9-tetrahydropyrrolo[2′,3′:3,4]cyclohepta[1,2-d][1,2]oxazole-8-carboxylate] | 3130 nM | 3700 nM | 1290 nM | 5260 nM | 3810 nM | 3530 nM | 3390 nM | 3510 nM | > 100000 nM | 3510 nM | 2950 nM | 3530 nM | 3780 nM | 1800 nM | 4010 nM | 3320 nM | 4020 nM | 3210 nM | > 100000 nM | 4390 nM | GI50 (MOLT-4): 3580 nM; GI50 (RPMI-8226): 3270 nM; GI50 (NCI/ADR-RES): 2830 nM; GI50 (SK-OV-3): > 100000 nM; GI50 (K-562): 3680 nM; GI50 (TK-10): > 100 µM; GI50 (NCI-H460): 3620 nM; GI50 (ACHN): 5.89 µM; GI50 (CCRF-CEM): 2210 nM; GI50 (MDA-MB-435): 1400 nM; GI50 (SNB-19): > 100000 nM; GI50 (PC-3): 3160 nM; GI50 (SF-268): > 100000 nM; GI50 (NCI-H226): > 100000 nM; GI50 (A498): 4380 nM; GI50 ([1]; Homo sapiens): 1.29 to 5.89 µM; MG_MID (mean graph midpoint) [1]: 7.08 µM
